Experimental data reported in US9249159B2, “Composition for treating hepatitis C virus, regulating phosphorylation of replicase” (Industry-Academic Cooperation Foundation, Yonsei University, priority 2011, dated 2016).

Experiments:
[1] = tested on: PRK2; experiment: PRK2 level in Huh7 cell by immunoblotting; format: cell-based; settings: 100 IU/ml IFN-α
[2] = tested on: PDK1; experiment: PDK1 level and activation in R-1 cell by immunoblotting; format: cell-based; settings: 100 IU/ml, hourly for 6 hours
Excerpt: Total cell lysates from cells treated with inhibitors or IFN-α by using antibodies to PDK1, p-PDK1 (S241), PRK2, and p-PRK2 (T816) (products of Cell Signaling Technology, Inc., Beverly, Mass., USA) was used for immunoblotting. In order to detect PKC isoforms α, β, and γ, a polyclonal antibody to a consensus sequence present in three PKC (protein kinase C) isoforms α, β and γ (anti-pan-PKC; Zymed Laboratories, San Francisco, Calif., USA) was used. An anti-α-tubulin antibody (Oncogene Research Products, Cambridge, Mass., USA) was carried out in immunoblotting for checking whether or not the same amount of protein was loaded.
Therefore, anti-HCV activity of 17-DMAG in the R-1 cell was tested at a level lower than 50 nM. To do so, the R-1 cell was treated with a vehicle (0.25% DMSO) or 17-DMAG for 72 hours and the cell lysates (50 μg) and antibodies specific to the proteins were immunoblotted to measure levels of the proteins. An anti-α-tubulin antibody (lower end panel) was used as an internal loading control. The levels of the proteins were measured by densitometric analysis of immunoblot, and the phosphorylated amounts and relative intensities calculated with respect to PDK1 and PDK2 were converted with respect to α-tubulin signals and then quantitated. As a result of three independent experiments showing similar results, a representative blot picture was illustrated. […]

[3] = target: T1, PRK2 (Homo sapiens, UniProt Q16513); experiment: PRK2 phosphorylation (Thr816) and PRK2 level in R-1 cells by Western blot; format: cell-based; settings: R-1 cell, 100 IU/ml, hourly for 6 hours
T1 construct: endogenous in cells; host or cells: R-1 (Huh7-derived HCV replicon cells) and Huh7
Experimental: After the R-1 cell line was treated with the PRK2 inhibitor at a final concentration of 10 or 20 μM for 48 hours, phosphorylation or not of Thr^816 residue essential for activity of PRK2 was analyzed by Western blot using a phospho-PRK2 antibody to measure an expression level of phosphorylated PRK2. Immunoblotting using an anti-α-tubulin antibody was carried out to check whether or not the same amount of protein was loaded.
Then, in order to check whether or not IFN-α affected a PDK1-PRK2 signaling pathway, the R-1 cell was treated with 100 IU/ml of IFN-α hourly for 6 hours. SDS-PAGE was carried out to the cell lysates, and immunoblotting was carried out. The immunoblotting with anti-α-tubulin antibody was used as an internal control for loading. A representative result from one of the three independent experiments showing a similar result was illustrated.

[4] = tested on: genotype 1b HCV subgenomic replicon (R-1 cell line); experiment: HCV replication (HCV RNA by real-time RT-PCR, NS5B protein by Western blot) in R-1 subgenomic replicon cells; format: cell-based, hepatitis C virus genotype 1b; settings: for decrease of HCV RNA titers with respect to DMSO control: R-1 cell line, 20 μM, 48 hours
Excerpt: In order to check a PRK2 phosphorylation inhibition effect of the novel inhibitors obtained in Example 1, R-1 cell line harboring HCV subgenomic replicons was used.
The R-1 cell line was comprised of cis-acting RNA elements of 5′ and 3′-end untranslated regions (UTR) essential for replication of HCV RNA, a selection marker inserted to select a replicated RNA into a portion from which a structural protein coding site was removed, and a non-structural protein (NS3-NS5B)-coding gene required for replication. In the replicon, the selection marker was expressed by the HCV 5′-UTR and internal ribosome entry site (IRES) as a part of a coding gene of a core protein as a structural protein and capsid protein, and HCV non-structural proteins were expressed by IRES of EMCV. In order to obtain replicon cells, a HCV subgenomic replicon RNA was obtained by means of in vitro transcription by using a T7 RNA polymerase, free ribonucleotide was removed by using a spin column, and introduced into a hepatocellular carcinoma cell line by electroporation. In the presence of G418, a stable cell line, i.e. a cell line showing a resistance to G418 through replication of HCV subgenome, was obtained. Expression of the HCV non-structural proteins in this cell line was analyzed by Western blot to confirm that replication was being carried out, and the R-1 cell line was constructed. It was observed that an HCV RNA copy number was about 10^7 copies/mL by a quantitative real-time PCR analysis using a TaqMan probe. The R-1 cell line was a cell line in which HCV RNA replication was being carried out, and thus it could be used to evaluate an HCV replication inhibition effect of a PRK2 activity inhibitor.
Then, after the R-1 cell line was treated with each of 5 screened PRK2 inhibitors, HA1077 currently and clinically used as a PRK2 activity inhibitor, and Y27632 having a PRK2 activity inhibition effect at a final concentration of 20 μM for 48 hours, levels of HCV NS5B protein and HCV RNA in cell lysates (50 μg) were analyzed by Western blot and real-time RT-PCR.
(§1) To do so, after the two cell lines were treated with the compound #17 at higher concentrations (60 and 100 μM) than 20 μM for 48 hours, an HCV RNA genome level was checked by a real-time RT-PCR analysis. A value was a mean±standard deviation (SD) of three independent measurements. HCV RNA titer was quantified by real-time PCR analysis. Three independent experiments were performed in triplicate.
5 derivatives (#18 to #22: refer to FIG. 2) were produced based on the inhibitor #17 showing the best effect. After the R-1 cell line was treated with each of these inhibitors or HA1077 and Y27632 at a final concentration of 20 μM for 48 hours, an HCV RNA genome level was checked by a real-time RT-PCR analysis and expressed in % with respect to a control treated with DSMO. Three independent experiments were conducted repeatedly three times. Data were expressed by mean±SD of the three experiments.
(§2) Total RNA was extracted from R-1 or HCV (JFH1)-infected cells using TRIzol LS reagent (Invitrogen, Carlsbad, Calif., USA) and purified according to the manufacturer's instructions. HCV RNA levels were quantified by RT-PCR using a primer pair and TaqMan probe targeting a region within the HCV 5′-UTR as described previously. Cellular glyceraldehyde-3-phosphate dehydrogenase was used as an internal control. Assays were performed using the DyNAmo Probe 2-step qRT-PCR Kit (Finnzymes, Espoo, Finland) and a CHROMO4 continuous fluorescence detector (Bio-Rad, Hercules, Calif., USA), according to the manufacturer's instructions.
Therefore, anti-HCV activity of 17-DMAG in the R-1 cell was tested at a level lower than 50 nM. To do so, the R-1 cell was treated with a vehicle (0.25% DMSO) or 17-DMAG for 72 hours and the cell lysates (50 μg) and antibodies specific to the proteins were immunoblotted to measure levels of the proteins. An anti-α-tubulin antibody (lower end panel) was used as an internal loading control. […]

[5] = tested on: genotype 2a HCV (JFH1)-infected Huh7 cells; experiment: HCV RNA level in Huh7 cells infected with HCV (JFH1); format: cell-based, hepatitis C virus genotype 2a; settings: JFH1-infected Huh7 cell, 100 IU/mL alone, 72 hours
Experimental: as §1
Full-length, infectious HCV RNA of the genotype 2a HCV clone JFH1 was prepared by in vitro transcription using the MEGAscript T7 kit (Ambion, Austin, Tex., USA) and electroporated into Huh7 cells as described previously. Briefly, at 72 h post electroporation, culture medium was collected, cleared by low-speed centrifugation, and passed through a 0.45-μm filter (Millipore, Billerica, Mass., USA) before being used for infection of Huh7 cells. Cells were infected with HCV at a multiplicity of infection of 0.3 by adsorption for 3 h with periodic rocking, then washed three times with phosphate-buffered saline (PBS) and maintained in complete DMEM. […]
as §2, with “Cellular glyceraldehyde-3-phosphate dehydrogenase was used as an internal control.” left out
In order to analyze whether or not 17-DMAG can inhibit replication in a cell infected with HCV, an experiment was carried out with the genotype 2a HCV infectious clone JFH1, which produces infectious virions in Huh7 or Huh7-derived cell lines. […] After 72 hours, total cellular RNA was extracted and HCV remaining in the infected cell was analyzed by quantitative RT-PCR.

[6] = target: recombinant active PRK2 (Homo sapiens, UniProt Q16513); experiment: In vitro kinase assay: recombinant PRK2 phosphorylating HCV NS5B; format: biochemical; settings: gamma-32P ATP and 100 μM ATP, autoradiography
Experimental: Then, in order to test an HCV NS5B protein phosphorylation inhibition effect of the screened novel PRK2 inhibitor, in vitro kinase assay was carried out.
Using a recombinant active PRK2 and purified HCV NS5B protein as substrates, the screened inhibitors #11 and #17 were treated in the presence of gamma-^32P ATP and 100 μM ATP. The reaction mixture was separated by SDS-PAGE (8% gel), and a result thereof was checked by autoradiography.
Finally, PRK2 and HCV NS5B phosphorylation inhibition effects of the compounds #18, #19, #20, #21 and #22 as the derivatives of the compound #17 were analyzed through in vitro kinase assay.
A 1 μM recombinant PRK2 and 10 μM HCV NS5B were phosphorylated for 30 minutes in the presence of 10 μCi γ-^32P ATP and 100 μM ATP. The reaction mixture was separated by SDS-PAGE (8% gel), and a result thereof was checked by autoradiography.

[7] = tested on: HCV NS5B; experiment: NS5B phosphorylation in Huh7TR-NS cell (anti-p-Ser immunoprecipitation, anti-NS5B immunoblot); format: cell-based, hepatitis C virus; settings: 17-DMAG 50 nM or HA1077 20 μM, 48 hours
Experimental: The human hepatoma stable cell lines Huh7TR-4 and Huh7TR-NS [17], which express the tetracycline repressor and the HCV NS proteins (NS3-NS5) in a tetracycline-inducible manner, respectively, were maintained in the presence of blasticidin S (10 μg/mlL and Zeocine (100 μg/mL). NS protein expression in Huh7TR-NS was induced by addition of 1 μg/mL tetracycline for 24 h. The Huh7 cell-derived cell line R-1, supporting stable, autonomous replication of genotype 1b HCV subgenomic replicon RNA, was described previously. 17-DMAG, the PRK2 inhibitor, HA1077, and the inhibitor of phosphatidylinositol 3-kinase (PI3K), LY294002, were obtained from Sigma-Aldrich (St. Louis, Mo., USA) and Calbiochem Inc. (La Jolla, Calif., USA), and Biomol (Plymouth Meeting, Pa., USA), respectively. IFN-α was purchased from Sigma-Aldrich (1-4276).
For co-immunoprecipitation experiment, the cells were resuspended in lysis buffer A (100 mM Tris-HCl, pH 8.0, 150 mM NaCl, 1% Triton X-100, 10 mM NaF, 1 mM Na3VO4, 17.5 mM β-glycerophosphate) supplemented with an EDTA-free protease inhibitor cocktail (Roche Applied Science, Indianapolis, Ind., USA) and incubated on ice for 30 min. […]
Then, treatment with 17-DMAG (50 nM) or HA1077 (20 μM), a PRK2 inhibitor, was carried out for 48 hours. […] A case without treatment with an inhibitor was expressed as (−).

T1 sequence (Q16513 whole entry): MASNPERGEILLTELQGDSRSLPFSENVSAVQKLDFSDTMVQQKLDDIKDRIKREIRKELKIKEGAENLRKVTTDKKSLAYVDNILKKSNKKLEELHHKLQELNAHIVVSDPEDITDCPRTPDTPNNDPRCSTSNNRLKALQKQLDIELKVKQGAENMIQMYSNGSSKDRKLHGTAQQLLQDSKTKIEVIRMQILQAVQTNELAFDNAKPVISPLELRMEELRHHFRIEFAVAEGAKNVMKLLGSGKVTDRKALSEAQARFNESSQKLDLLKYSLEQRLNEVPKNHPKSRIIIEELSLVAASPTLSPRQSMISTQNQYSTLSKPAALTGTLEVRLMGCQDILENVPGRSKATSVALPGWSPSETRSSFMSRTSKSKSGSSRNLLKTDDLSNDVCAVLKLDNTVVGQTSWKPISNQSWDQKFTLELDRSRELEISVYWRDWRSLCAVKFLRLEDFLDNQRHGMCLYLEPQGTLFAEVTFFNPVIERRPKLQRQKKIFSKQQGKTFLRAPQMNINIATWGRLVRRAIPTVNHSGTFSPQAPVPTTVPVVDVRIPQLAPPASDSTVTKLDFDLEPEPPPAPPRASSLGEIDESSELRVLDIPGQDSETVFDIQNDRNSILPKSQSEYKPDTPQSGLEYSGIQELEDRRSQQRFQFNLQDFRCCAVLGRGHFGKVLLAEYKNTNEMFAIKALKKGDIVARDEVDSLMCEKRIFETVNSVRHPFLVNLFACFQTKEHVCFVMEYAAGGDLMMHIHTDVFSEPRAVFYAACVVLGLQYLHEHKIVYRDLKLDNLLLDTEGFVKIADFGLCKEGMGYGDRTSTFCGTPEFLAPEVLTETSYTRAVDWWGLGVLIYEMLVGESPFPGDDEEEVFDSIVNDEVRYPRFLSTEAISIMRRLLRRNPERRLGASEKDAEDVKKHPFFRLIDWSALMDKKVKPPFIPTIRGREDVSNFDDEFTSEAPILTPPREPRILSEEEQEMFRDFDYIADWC
Chain of recombinant active PRK2 (Q16513 whole entry): as above

## IFN-α
[1]
  PDK1 and PRK2 contents and activation: A similar result was observed
[2]
  activation of PDK1: any change in activation of PDK1 in the treated cell was not observed
[3]
  p-PRK2 content or PRK2 content: any significant change in p-PRK2 content or PRK2 content was not observed
[4]; R-1 cell, 100 IU/ml alone, 72 hours
  decrease of content of HCV RNA: approximately 80%
[5]
  inhibition of virus RNA replication: about 90%

## O=C(Nc1ccc2[nH]cnc2c1)C1CCCCC1 [compound #11, cyclohexanecarboxylic acid (1H-benzoimidazole-5-yl)-amide]
[6]
  inhibition of in vitro phosphorylation of HCV NS5B protein: inhibit phosphorylation of HCV NS5B protein

## O=S(=O)(c1cccc2cnccc12)N1CCCNCC1 [HA1077]
[4]
  decrease of HCV RNA titers with respect to DMSO control: 40%
[4]; R-1 cell, HA1077 20 μM combined with IFN-α 100 IU/ml
  anti-HCV activity in combined treatment with IFN-α: anti-HCV activity of IFN-α was improved
[7]
  NS5B phosphorylation: also inhibited NS5B phosphorylation

## O=C(Nc1ccncc1)c1ccc[nH]c1=O [compound 20, 2-oxo-N-(4-pyridinyl)-1,2-dihydro-3-pyridinecarboxamide]
[4]
  decrease of HCV RNA titers with respect to DMSO control: approximately 60%

## C[C@@H](N)[C@H]1CC[C@H](C(=O)Nc2ccncc2)CC1 [Y27632]
[4]
  decrease of HCV RNA titers with respect to DMSO control: 49%
